Reference: patent publication US20150374649A1, “Treatment of Severe Hypertriglyceridemia” (CymaBay Therapeutics, Inc, priority 2014, published 2015)

Tests used:
PPARα = target: T1, PPARα (Homo sapiens, UniProt Q07869); test: Specificity for PPARδ compared with PPARα; type: biochemical; conditions: PPARδ versus PPARα
T1 sequence (Q07869 1-468): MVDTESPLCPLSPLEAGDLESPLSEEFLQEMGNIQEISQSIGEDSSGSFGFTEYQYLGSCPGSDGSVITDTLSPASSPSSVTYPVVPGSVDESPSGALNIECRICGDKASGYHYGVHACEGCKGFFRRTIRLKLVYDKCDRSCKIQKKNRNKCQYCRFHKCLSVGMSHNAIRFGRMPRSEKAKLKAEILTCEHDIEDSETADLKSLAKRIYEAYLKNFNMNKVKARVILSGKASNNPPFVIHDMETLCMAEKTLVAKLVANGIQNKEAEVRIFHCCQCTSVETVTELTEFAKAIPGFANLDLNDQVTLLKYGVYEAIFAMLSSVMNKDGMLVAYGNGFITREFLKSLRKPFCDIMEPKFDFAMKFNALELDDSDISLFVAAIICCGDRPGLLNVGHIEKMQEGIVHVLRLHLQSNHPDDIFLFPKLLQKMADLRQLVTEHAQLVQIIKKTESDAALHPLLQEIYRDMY

[1] = system: adult subjects with severe hypertriglyceridemia; test: 12-week open label dose-escalation study in severe hypertriglyceridemia; type: in vivo, human
Method: The study is a 12-week interventional, open label (single blind), dose-escalation study using adult subjects (for example 30, preferably with at least one-fourth the number having Type I hyperlipoproteinemia and at least one-fourth the number having Type V hyperlipoproteinemia) with severe hypertriglyceridemia (fasting TG levels of at least 1000 mg/dL), on stable therapy (fibrates, niacin, O3FA) or refractory to such therapy. Exclusion criteria include stage 3 or 4 heart failure, uncontrolled diabetes mellitus in the month before screening, use of corticosteroids in the month before screening, estrogen treatments (contraceptive or hormone replacement) unless on a stable dose in the two months before screening, a history of pancreatic disease during the six months before screening, and current apheresis treatments. Subjects are assessed for fasting TGs and other lipids at baseline.

[2] = system: dyslipidemic overweight patients (mixed dyslipidemia); conditions: cited from earlier work
[3] = system: hypertriglyceridemia patients; conditions: cited from earlier work

Compound	specificity compared with PPARα (PPARα)	fasting TGs versus baseline ([1]; 50, 100, 200 mg/day orally, four weeks each, reduction increasing with dose)	percentage of subjects at risk of acute pancreatitis and associated adverse events ([1]; subjects with SHTG)	reduction of TGs over the total population treated ([2]; 50 mg/day and 100 mg/day)	reduction of TGs ([2]; compared to placebo, 50 or 100 mg once daily alone and in combination with ATV 20 mg, 8 weeks, P<0.05)	insulin sensitivity ([2]; homeostatic model assessment-insulin resistance, fasting plasma glucose, insulin lowered)	GGT and ALP ([2]; in vivo)	effect on small dense LDL particles ([2]; in vivo)	liver enzyme levels ([2]; in vivo)	percentage reduction in TGs, tertile with lowest starting TG levels ([2]; starting TG 125-155 mg/dL)	percentage reduction in TGs, tertile with highest starting TG levels ([2]; starting TG 279-324 mg/dL)	decrease of TG levels ([3]; high-dose niacin (at least 1500 mg/day))	raise of HDL-C levels ([3]; human, in vivo)
CCO[C@H](COc1ccc(C(F)(F)F)cc1)CSc1ccc(OCC(=O)O)c(C)c1 [MBX-8025, (R)-2-(4-((2-ethoxy-3-(4-(trifluoromethyl)phenoxy)propyl)thio)-2-methylphenoxy)acetic acid]	> 600 fold	reduction in fasting TGs from baseline	significantly reduce	32%	26-30%	increases insulin sensitivity	lowers GGT and ALP	selectively depletes small dense LDL particles	reduced liver enzyme levels	near zero	over 40%	–	–
O=C(O)c1cccnc1 [niacin, pyridine-3-carboxylic acid]	–	–	–	–	–	–	–	–	–	–	–	at least 40%	at least 40%
